Results on 1 compound are retold here after article PMC7960626, “Phase I study assessing the mass balance, pharmacokinetics, and excretion of [^14C]-pevonedistat, a NEDD8-activating enzyme inhibitor in patients with advanced solid tumors” (Investigational New Drugs, 2020).

“Also recorded” adds a separate entry of the source. Bounds are passed on as bounds.

A short description of data set [1]: Mass balance: recovery of total radioactivity in urine and feces (part A). It counts as in vivo, human. The conditions noted are these: post dose; single IV dose 25 mg/m^2. Here is the method:
This was a two-part (A and B), open-label, multicenter, mass balance, distribution, metabolism, excretion (DME) study in adult patients with advanced solid tumors. In part A, patients received a single IV infusion of [^14C]-pevonedistat 25 mg/m^2 (containing approximately 60–85 µCi, or 2.22–3.145 MBq, of total radioactivity) at a single center (Duna Medical Center, Budapest, Hungary). Patients were required to stay at the part A study site for approximately 8 days or until the discharge criteria were met, with a maximum estimated confinement period of 9–14 days. […]
The primary objectives of the study were to assess the mass balance (cumulative recovery of total radioactivity in urine and feces) and to characterize the PK of pevonedistat (whole blood, plasma, and urine) and total radioactivity (drug-related material; plasma and whole blood) following a single infusion of [^14C]-pevonedistat 25 mg/m^2 (part A).
(§1) Blood samples were collected for total radioactivity and PK assessments in whole blood and plasma at prespecified time points (pre dose [within 1 h before the start of the pevonedistat infusion], end of infusion, then 0.5, 1, 2, 3, 4, 8, 12, 24, 48, 72, 96, 120, 144 and 168 hours post dose). Complete urinary and fecal output were collected for analysis of PK (urine) and total radioactivity (urine and feces) throughout the confinement period until discharge criteria were met. […]

On the set-up of data set [2]: method as in PMID 30845347. The conditions noted are these: strong and moderate CYP3A inhibitors (itraconazole); cited from earlier work.
The next data set deals with CYP3A. More on the design: method as in PMID 30845347. Particulars: in vitro; cited from earlier work.
Data set [3] is described as follows: Plasma PK after a single 1-h IV infusion of [^14C]-pevonedistat 25 mg/m^2 (part A). The class given is in vivo, human. The source says:
This was a two-part (A and B), open-label, multicenter, mass balance, distribution, metabolism, excretion (DME) study in adult patients with advanced solid tumors. […] Patients were required to stay at the part A study site for approximately 8 days or until the discharge criteria were met, with a maximum estimated confinement period of 9–14 days. Upon completion of part A, patients had the option to participate in part B at Medical Center Hungarian Defense Forces, Budapest, Hungary. […] Treatment was administered for 12 cycles or until discontinuation criteria were met.
Complete urinary and fecal output were collected for analysis of PK (urine) and total radioactivity (urine and feces) throughout the confinement period until discharge criteria were met. Bioanalytical assay methods are shown in the Supplementary Methods. […] In part B, disease assessments were conducted using radiological evaluations (computed tomography [CT] scan or magnetic resonance imaging [MRI], as clinically indicated).
Non-compartmental analysis using Phoenix™ WinNonlin® version 8.0 (Pharsight Corp., Mountain View, California, USA) was used for estimation of PK parameters for pevonedistat in whole blood, plasma, and urine and for total radioactivity in whole blood, plasma, urine, and feces. The following single-dose PK parameters were derived: maximum plasma concentration (Cmax), area under the concentration–time curve from time 0 to infinity (AUC∞), AUC from time 0 to the last quantifiable concentration (AUC0 − last), terminal disposition phase half-life (t1/2), renal clearance (CLR), clearance (CL), and volume of distribution at steady state (Vss).
PK data were summarized using descriptive statistics, and the PK and mass balance parameters described in Supplementary Table S1 were calculated by non-compartmental analysis for each individual patient. Safety was assessed in all patients who received at least one dose of pevonedistat, and TEAEs were coded according to the Medical Dictionary for Regulatory Activities (MedDRA), version 20.0. Analysis of efficacy in part B was descriptive; disease response was assessed in all patients who received at least one dose of pevonedistat, had measurable disease (per entry criteria for part B), and had at least one post-baseline disease assessment. Response assessment was done by the investigator using Response Evaluation Criteria in Solid Tumors (RECIST) version 1.1. SAS version 9.4 was used for all statistical analyses. […]
160 All samples were analyzed applying the methods described below: […]

In another data set the test system is advanced solid tumors. Nature of the data set: Disease response by RECIST version 1.1 (part B). The class given is in vivo, human. Particulars: 7 patients evaluable, with carboplatin/paclitaxel or docetaxel. The method, then:
This was a two-part (A and B), open-label, multicenter, mass balance, distribution, metabolism, excretion (DME) study in adult patients with advanced solid tumors. In part A, patients received a single IV infusion of [^14C]-pevonedistat 25 mg/m^2 (containing approximately 60–85 µCi, or 2.22–3.145 MBq, of total radioactivity) at a single center (Duna Medical Center, Budapest, Hungary). Patients were required to stay at the part A study site for approximately 8 days or until the discharge criteria were met, with a maximum estimated confinement period of 9–14 days. Upon completion of part A, patients had the option to participate in part B at Medical Center Hungarian Defense Forces, Budapest, Hungary. In part B, patients received treatment in 3-week cycles with either: pevonedistat 20 mg/m^2 on days 1, 3, and 5 plus carboplatin AUC5 and paclitaxel 175 mg/m^2 on day 1; or pevonedistat 25 mg/m^2 on days 1, 3, and 5 plus docetaxel 75 mg/m^2 on day 1. Treatment was administered for 12 cycles or until discontinuation criteria were met.
as §1, with “met. Bioanalytical assay methods are shown in the Supplementary Methods. Safety was assessed by incidence and severity of TEAEs, vital signs, physical examinations, electrocardiograms, and clinical laboratory tests, and toxicities were graded according to the National Cancer Institute Common Terminology Criteria for Adverse Events (NCI CTCAE), version 4.03.” for “met.”
PK data were summarized using descriptive statistics, and the PK and mass balance parameters described in Supplementary Table S1 were calculated by non-compartmental analysis for each individual patient. […]

Setting [4] is: human, plasma, single 1-h IV infusion 25 mg/m^2, geometric mean (CV), N = 7.

With `NS(=O)(=O)OC[C@@H]1C[C@@H](n2ccc3c(N[C@H]4CCc5ccccc54)ncnc32)C[C@@H]1O` [Pevonedistat], the “time by which the majority of the radioactivity was recovered” value in data set [1] is not above 96 h. Moreover, in data set [2], the “effect of CYP3A inhibitors on pevonedistat exposure” value is “did not indicate clinically meaningful alterations in its PK; also recorded: did not result in clinically meaningful increases in pevonedistat exposure”. In the data set with CYP3A, the “role of CYP3A in metabolism” value is given as “substrate of CYP3A; also recorded: major role for CYP3A”. Also, the CL renal in data set [3] (human, plasma, iv, 25 mg/m^2) is 13.3 mL/min. In data set [3] (setting [4]), this compound showed an AUC(0-inf) of 1460 ng·h/mL, an AUC(0-t) of 1410 ng·h/mL, a Cmax of 218 ng/mL and a clearance of 537 mL/min. Besides, in data set [3] (human, plasma, single 1-h IV infusion 25 mg/m^2, geometric mean (CV), N = 7, read-out: Vss), the Vd amounted to 296 L. In addition, the half-life in data set [3] (human, plasma, single 1-h IV infusion 25 mg/m^2, mean (SD), N = 7) was 8.4 h. Besides, the “Exposure ratio (AUC∞) of pevonedistat vs. total drug-related material” value in data set [3] (plasma, single 1-h IV infusion 25 mg/m^2, mean) worked out at 0.41. In addition, the “CLR as share of pevonedistat total plasma clearance” value in data set [3] (single dose 25 mg/m^2) is reported as “approximately 2.5%”. In addition, the “systemic exposure of unchanged pevonedistat as share of drug-related material” value in data set [3] (single dose 25 mg/m^2, part A) was found to be 41%. Moreover, in the data set with advanced solid tumors, the “best response of partial response” value was “One”, the “best response of stable disease” value came out at 5 patients and the progressive disease entry is on record as “remaining patient”.
